Assays:
[1] = system: Human immunoselected Stro-1+ Progenitor cells; experiment: Hyaluronan biosynthesis, 3H-glucosamine incorporation, Superdex-S200 before/after Hyalase, 9 day micromass; format: cell-based
From the text: FIG. 27. Chromatographic elution profiles showing the effects of polysulfated polysaccharides on the biosynthesis of Hyaluronan (HA) and by progenitor cells by measuring the incorporation of ^3H-glucosamine into HA. […] The % difference in areas under the profiles of the digested and pre-digested samples in the void volume fractions represents the amounts of ^3H-HA released into the media by the PPS concentration specified.
Human immunoselected Stro-1+ Progenitor cells (Mesoblast Ltd, Melbourne, Australia) were established in micromass cultures in 24 well plates using the method described above but seeding the progenitor cells at a density of 7×10^5 cells/well. After 24 hours in culture the media was changed and replaced with DMEM culture medium containing 10% FCS and 25 μg/ml gentamicin containing PPS (Bene-Arzneimittel, Munich, […]) which had been sterilised through a 0.22 μm filter. The cultures were incubated in 5% CO2/95% moist air at 37° C. for 8 days with media changes containing the indicated concentrations of PPS every 3 days. On the 8th day ^3H-glucosamine was added to culture medium containing the indicated concentrations of PPS to provide a solution containing 1.0 μCi/ml which was added to each well. The plates were incubated for a further 24 h. At termination of the cultures on day 9, media was collected into 5 ml capped tubes and stored at 4° C. prior to size exclusion chromatography as described below.
Two aliquots of 0.5 ml from each media sample were labelled A and B. 20 μl of 1 M acetic acid, pH 6.0 was added to all aliquots. 50 μl of reaction buffer (20 mM Na-acetate and 0.15 M NaCl, pH 6.0) was added to aliquot A and 50 μl of 5 TRU Streptomyces hyaluronidase (HYALASE) in reaction buffer was added to aliquot B. All samples were incubated at 60° C. for 3 h followed by boiling for 5 min to inactivate the added hyaluronidase. The samples were stored at −20° C. prior to gel filtration.
A Gel filtration column prepacked with Superdex-S200 was used to isolate and identify ^3H-HA and ^3H-PGs in culture media. Media samples were routinely centrifuged at high speed on a bench Microfuge for 10 min immediately before loading to the column. Samples (200 μl of each) were injected into the column through sample loop and the column was eluted with PBS buffer (0.15 M NaCl, 0.05 M Na2PO4, pH 7.2) at the flow rate of 0.2 ml/1 min. The column eluent was collected at 1.0 ml/fraction for total of 186 fractions and radioactivity was determined using a β-scintillation counter.

[2] = system: murine Progenitor Cells (C3H10T1/2 cells); experiment: DNA synthesis (3H-Thymidine) in 2 day monolayer cultures; format: cell-based; conditions: murine progenitor cell line, FIG. 10
From the text: FIG. 10. A bar graph of the concentration dependent effects of Pentosan Polysulfate (PPS) on DNA synthesis by murine Progenitor Cells (C3H10T1/2 cells) grown in monolayer cultures for 2 days as determined by the incorporation of ^3H-Thymidine into macromolecular DNA.

human progenitor cells = experiment: IL-4/IFN-gamma induced apoptosis, Annexin V staining; format: cell-based
Description: FIG. 6. The Effects of Pentosan Polysulfate (PPS) on Human progenitor cells treated with apoptotic agents. Human progenitor cells were plated in serum-free media supplemented with PPS at the indicated concentrations. Progenitor cell apoptosis was induced by the addition of a combination of 30 ng/ml IL-4 plus 30,000 U/ml IFN-gamma. Following 5 days culture, cells were harvested by trypsinisation and viabilities assessed by Annexin V staining.
Human progenitor cells were plated in serum-free media supplemented with PPS at concentrations of 0, 1, 2, 5 and 10 micrograms/mL. Progenitor cell apoptosis was induced by the addition of a combination of 30 ng/ml IL-4 30,000 U/ml IFN gamma. Following 5 days culture, cells were harvested by trypsinisation and viabilities assessed by Annexin V staining as previously described (Kortesidis A, A Zannettino, S Isenmann, S Shi, T Lapidot and S Gronthos. (2005). Stromal-derived factor-1 promotes the growth, survival, and development of human bone marrow stromal stem cells. Blood 105:3793-3801).
The experiment was undertaken in a 96 well plate containing 50,000 progenitor cells/well.

Type II collagen = experiment: Gene expression in 6-day pellet culture (RT-PCR); format: cell-based, murine; conditions: ATDC5 cells; 6 days in pellet culture; FIG. 13
Description: FIG. 13. Gene Expression by ATDC5 cells of Type II collagen and Sox-9 in 6-day pellet culture incubated with various concentrations of PPS in Maintenance Medium (MM).
Total RNA was isolated from Progenitor cells according to the manufacturer's instructions for the Aurum total RNA mini kit (Bio-Rad, USA). The RNA was reverse transcribed with RevertAid™ H Minus First Stand cDNA Synthesis Kit (Fermentas, USA). PCR products were transferred to an agarose gel, and visualized by ethidium bromide staining, and integrated densities calculated using Scion image analysis software, normalized to the house-keeping gene Glyceraldehydes-3-phosphate dehydrogenase (GAPDH) to permit semi-quantitative comparisons in mRNA levels. (L. Marchuk, P. Sciore, C. Reno, C. B. Frank, D. A. Hart. Postmortem stability of total RNA isolated from rabbit ligament, tendon and cartilage, Biochim Biophys Acta. 1379 (1998) 171-177. R. Boykiw, P. Sciore, C. Reno, L. Marchuk, C. B. Frank, D. A. Hart. Altered levels of extracellular matrix molecule mRNA in healing rabbit ligaments, Matrix Biol. 17 (1998) 371-378.)

pentosan polysulfate [PPS]
3H-glucosamine radioactivity incorporated into HA (media) ([1]; PPS 0.1 micrograms/mL (profile not shown)): 35.5% | levels of newly synthesized 3H-HA in the culture media ([1]; PPS 0.1 micrograms/mL and 1.0 micrograms/mL only): substantial increases | 3H-glucosamine radioactivity incorporated into HA (media) ([1]; PPS 1 microgram/mL, FIG. 27C): 49.6% | radioactivity in post digestion void volume fractions of PG monomers ([1]; PPS 1 microgram/mL, FIG. 27C): 50.4% | 3H-glucosamine incorporated into HA (media) ([1]; PPS 2.5 micrograms/mL): about 11% | PPS concentration of maximum synthesis of HA ([1]; micromass cultures, media): 1.0 micrograms/mL | biosynthesis of HA by cultured progenitor cells ([1]; micromass, FIG. 27): stimulates the biosynthesis of HA | 3H-glucosamine radioactivity found in the HA fractions (media) ([1]; the lower concentration of PPS (FIG. 27B)): 15.1% | cell division (3H-Thymidine incorporation into DNA) [2]: Marked stimulation of cell division | PPS concentration with best results on apoptosis (human progenitor cells; FIG. 6): 10 µg/mL | reduction in IFN-gamma/IL-4-induced apoptosis (Annexin V positive cells) (human progenitor cells; PPS in excess 1 ug/ml, 5 days culture, FIG. 6): two-fold reduction | cell apoptosis (human progenitor cells; all concentrations of PPS (1, 2, 5, 10 micrograms/mL)): reduced | reduction of apoptosis (human progenitor cells; concentrations above 1 microgram/mL, incubated with IL-4 and IFN-gamma, FIG. 6): about 50% | type II collagen expression (Type II collagen): up-regulated in a concentration dependent manner
